The source of these data is patent publication US20250042900A1 (priority 2022, published 2025).

By EC50 is commonly meant the concentration giving half of the maximal effect.

Where a name gives a salt, the structure may show the parent alone.

The target in series [1] is T1, dopamine transporter (DAT) (Rattus norvegicus, UniProt P23977).
T1 construct: synaptosomes prepared from brains using standard procedures; from tissue; host or cells: caudate synaptosomes of male Sprague-Dawley rats
The series is described as follows: Dopamine Release Assay in rat synaptosomes. The format is biochemical. The conditions noted are these: rat synaptosomes preloaded with 30 nM [3H]DA; eight concentrations from 10 μM; four-parameter log-logistic fit; estimated.

For the next series, the system named is DAT and NET. The conditions noted are these: neurotransmitter release; cited from earlier work.
For series [2] the following is noted: humans, after 75 or 125 mg MDMA; standard deviation 1.3 hours; cited from earlier work.
A further series deals with DAT and SERT. As to conditions: cited from earlier work.
Series [3] has as its target CAV1.2 (Voltage-gated L-type calcium channel) (Homo sapiens, UniProt Q13936). The series is described as follows: Ion channel assay, blocker format. In kind it is cell-based. As to conditions: read-out: IC50 (μM) Antag./Blocker/Inhibitor.
In series [4] the target is Nicotinic acetylcholine Receptor α4 β2 (nAChR(a4/b2)) (Homo sapiens, UniProt P17787+P43681). The series is described as follows: Ion channel assay, blocker format. In kind it is cell-based. The conditions noted are these: nAChR(a4/b2); Ion Channel; blocker; read-out: IC50 (μM) Antag./Blocker/Inhibitor.
Chain of Nicotinic acetylcholine Receptor α4 β2 (nAChR(a4/b2)) (P43681 29-627 limits assumed): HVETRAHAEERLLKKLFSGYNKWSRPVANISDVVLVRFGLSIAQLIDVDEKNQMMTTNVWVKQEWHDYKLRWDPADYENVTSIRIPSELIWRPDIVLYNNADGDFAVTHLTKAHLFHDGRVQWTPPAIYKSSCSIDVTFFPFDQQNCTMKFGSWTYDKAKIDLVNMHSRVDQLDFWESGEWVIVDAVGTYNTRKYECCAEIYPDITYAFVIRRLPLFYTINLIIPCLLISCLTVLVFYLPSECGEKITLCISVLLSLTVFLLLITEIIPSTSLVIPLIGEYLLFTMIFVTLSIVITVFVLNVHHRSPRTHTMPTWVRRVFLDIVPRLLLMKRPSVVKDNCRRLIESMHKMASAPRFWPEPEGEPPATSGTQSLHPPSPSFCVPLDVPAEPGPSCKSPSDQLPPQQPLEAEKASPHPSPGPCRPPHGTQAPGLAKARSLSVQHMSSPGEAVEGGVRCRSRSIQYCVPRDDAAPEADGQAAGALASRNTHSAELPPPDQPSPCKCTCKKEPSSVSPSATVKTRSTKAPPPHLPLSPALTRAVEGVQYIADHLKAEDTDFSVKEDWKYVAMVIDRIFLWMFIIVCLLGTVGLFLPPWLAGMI
Chain of Nicotinic acetylcholine Receptor α4 β2 (nAChR(a4/b2)) (P17787 26-502): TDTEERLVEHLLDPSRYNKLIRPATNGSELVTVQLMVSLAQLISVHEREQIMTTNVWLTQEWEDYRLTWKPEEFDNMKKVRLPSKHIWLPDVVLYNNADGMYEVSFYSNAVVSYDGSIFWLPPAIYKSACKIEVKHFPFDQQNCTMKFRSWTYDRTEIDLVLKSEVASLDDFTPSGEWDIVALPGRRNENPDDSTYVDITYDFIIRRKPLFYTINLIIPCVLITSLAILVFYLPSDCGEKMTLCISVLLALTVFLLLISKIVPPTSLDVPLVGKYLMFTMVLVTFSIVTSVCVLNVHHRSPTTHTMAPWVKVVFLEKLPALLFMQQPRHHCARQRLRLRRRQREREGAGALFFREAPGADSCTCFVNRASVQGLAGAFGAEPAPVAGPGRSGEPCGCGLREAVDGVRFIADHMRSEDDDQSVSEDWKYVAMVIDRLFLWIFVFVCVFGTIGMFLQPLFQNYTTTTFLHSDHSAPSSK
Series [5] addresses Gamma-aminobutyric acid Receptor A (GABAA). The series can be described thus: Ion channel assay, blocker format. The format is cell-based. The conditions noted are these: GABAA; Ion Channel; blocker; read-out: IC50 (μM) Antag./Blocker/Inhibitor.

T1 sequence (P23977 whole entry): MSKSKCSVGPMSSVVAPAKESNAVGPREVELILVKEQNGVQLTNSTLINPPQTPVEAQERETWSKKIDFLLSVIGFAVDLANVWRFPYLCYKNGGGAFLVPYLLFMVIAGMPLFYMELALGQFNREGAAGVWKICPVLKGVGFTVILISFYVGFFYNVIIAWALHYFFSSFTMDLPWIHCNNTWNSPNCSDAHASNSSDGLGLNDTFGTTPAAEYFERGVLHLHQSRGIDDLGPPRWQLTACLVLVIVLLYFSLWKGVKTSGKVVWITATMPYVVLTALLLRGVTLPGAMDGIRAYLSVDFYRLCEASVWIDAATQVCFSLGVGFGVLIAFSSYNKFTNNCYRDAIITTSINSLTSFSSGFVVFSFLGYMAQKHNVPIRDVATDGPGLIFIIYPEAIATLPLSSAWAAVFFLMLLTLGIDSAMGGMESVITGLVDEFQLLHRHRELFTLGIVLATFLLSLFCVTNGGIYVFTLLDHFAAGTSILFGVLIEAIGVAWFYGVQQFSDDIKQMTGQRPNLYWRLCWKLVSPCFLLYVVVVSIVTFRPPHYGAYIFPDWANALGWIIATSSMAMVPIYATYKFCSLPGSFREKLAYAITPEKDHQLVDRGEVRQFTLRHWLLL

As to `CNC(C)Cc1ccn2ccccc12` (stereo not shown) [Compound 26-5, 1-(indolizin-1-yl)-N-methylpropan-2-amine HCl salt], the EC50 in series [1] is 61.9 nM. On to `CCC(Cc1ccn2ccccc12)NC` (stereo not shown) [Compound 25-14, 1-(indolizin-1-yl)-N-methylbutan-2-amine], for which the EC50 in series [1] was 2710 nM. As for `C[C@H](N)Cc1ccccc1` [d-amphetamine, dextroamphetamine], the “DAT/NET EC50 ratio” value with DAT and NET is given as 0.9. `CNC(C)Cc1ccc2c(c1)OCO2` (stereo not shown) [MDMA]: the “duration of acute therapeutic effects” value in series [2] was 4.2 h. The “DAT/SERT IC50 ratio” value with DAT and SERT is listed as 0.08.

As for `CN[C@@H](C)Cc1ccccc1` [d-methamphetamine], the “DAT/NET EC50 ratio” value with DAT and NET is recorded as 0.5. For the compound `COC(=O)C1=C(C)NC(C)=C(C(=O)OC(C)C)C1c1cccc2nonc12` (stereo not shown) [Isradipine, reference compound], in series [3], the IC50 stood at 0.017 µM. As for “Dihydro-AY-erythroidine [reference compound]”, the IC50 in series [4] stood at 0.682 µM.

Regarding `CCC(N)Cc1ccn2ccccc12` (stereo not shown) [Compound 27-1, 1-indolizin-1-ylbutan-2-amine HCl salt], in series [1], the EC50 is 21800 nM. Picrotoxin [reference compound]: in series [5], the IC50 was determined as 2.78 µM.
